ChEMBL document CHEMBL1131224, “Design and synthesis of cyclic inhibitors of matrix metalloproteinases and TNF-alpha production” (J Med Chem, 1998)

Key:
Interstitial collagenase = target: T1, Interstitial collagenase (Homo sapiens, UniProt P03956); assay: Inhibition of MMP-1 (Matrix metalloprotease-1)
T1 sequence (P03956 whole entry): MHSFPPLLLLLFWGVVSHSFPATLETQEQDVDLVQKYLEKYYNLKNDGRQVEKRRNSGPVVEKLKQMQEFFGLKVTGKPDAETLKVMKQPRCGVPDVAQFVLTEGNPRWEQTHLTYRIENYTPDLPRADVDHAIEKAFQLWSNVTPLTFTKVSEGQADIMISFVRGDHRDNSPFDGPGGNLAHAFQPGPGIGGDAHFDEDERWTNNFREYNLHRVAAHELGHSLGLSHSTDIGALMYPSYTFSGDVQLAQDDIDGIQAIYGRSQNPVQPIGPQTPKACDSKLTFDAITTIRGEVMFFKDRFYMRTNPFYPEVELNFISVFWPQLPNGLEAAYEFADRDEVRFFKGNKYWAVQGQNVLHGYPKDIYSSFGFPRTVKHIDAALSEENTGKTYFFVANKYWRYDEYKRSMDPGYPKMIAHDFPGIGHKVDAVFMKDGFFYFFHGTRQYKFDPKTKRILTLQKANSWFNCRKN

Homo sapiens = organism: Homo sapiens; assay: In vitro inhibition for TNF-alpha production from LPS-stimulated human whole blood; assay type: functional
Stromelysin-1 = Stromelysin-1 (Homo sapiens, UniProt P08254); assay: Inhibition of MMP-3 (Matrix metalloprotease-3)
Chain of Stromelysin-1 (P08254 whole entry): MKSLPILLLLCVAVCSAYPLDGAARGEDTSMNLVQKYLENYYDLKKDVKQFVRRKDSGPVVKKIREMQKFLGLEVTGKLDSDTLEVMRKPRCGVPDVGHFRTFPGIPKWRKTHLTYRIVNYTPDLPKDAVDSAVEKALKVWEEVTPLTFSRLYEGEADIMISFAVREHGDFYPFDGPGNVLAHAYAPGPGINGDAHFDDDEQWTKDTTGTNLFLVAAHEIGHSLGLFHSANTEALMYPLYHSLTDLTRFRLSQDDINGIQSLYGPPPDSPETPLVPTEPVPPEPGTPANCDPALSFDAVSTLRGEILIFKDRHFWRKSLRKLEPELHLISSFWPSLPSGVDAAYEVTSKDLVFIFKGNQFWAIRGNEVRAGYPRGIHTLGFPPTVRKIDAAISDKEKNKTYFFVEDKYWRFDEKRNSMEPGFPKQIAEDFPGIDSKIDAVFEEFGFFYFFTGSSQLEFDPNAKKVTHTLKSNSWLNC

[1] = target: Matrix metalloproteinase-9 (Homo sapiens, UniProt P14780); assay: Inhibition of MMP-9 (Matrix metalloprotease-9)
Chain of Matrix metalloproteinase-9 (P14780 whole entry): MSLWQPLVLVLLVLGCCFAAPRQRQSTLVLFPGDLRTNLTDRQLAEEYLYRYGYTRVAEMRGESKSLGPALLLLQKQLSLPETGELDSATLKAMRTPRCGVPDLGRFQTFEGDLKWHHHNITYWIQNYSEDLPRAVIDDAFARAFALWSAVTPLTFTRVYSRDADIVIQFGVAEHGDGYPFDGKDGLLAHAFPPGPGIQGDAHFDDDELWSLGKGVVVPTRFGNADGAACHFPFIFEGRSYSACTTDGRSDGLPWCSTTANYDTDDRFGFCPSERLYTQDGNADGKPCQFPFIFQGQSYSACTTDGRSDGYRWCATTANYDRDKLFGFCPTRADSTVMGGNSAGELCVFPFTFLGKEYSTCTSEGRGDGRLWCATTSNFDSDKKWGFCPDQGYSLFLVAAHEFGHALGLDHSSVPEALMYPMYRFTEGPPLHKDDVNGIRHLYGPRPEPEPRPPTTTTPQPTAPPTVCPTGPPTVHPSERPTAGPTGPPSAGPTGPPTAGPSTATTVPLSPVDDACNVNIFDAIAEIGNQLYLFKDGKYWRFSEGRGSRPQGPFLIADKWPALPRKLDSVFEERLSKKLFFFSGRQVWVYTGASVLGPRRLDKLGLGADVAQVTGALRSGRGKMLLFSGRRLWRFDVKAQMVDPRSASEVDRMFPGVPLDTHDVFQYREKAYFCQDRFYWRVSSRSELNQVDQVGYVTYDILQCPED

Structure (SMILES)	Ki (Interstitial collagenase)	IC50 (Homo sapiens)	Ki (Stromelysin-1)	Ki [1]
CNC(=O)[C@@H](Cc1ccc(OC)cc1)NC(=O)[C@H](CC(C)C)[C@H](C)C(=O)NO	0.87 nM	1800 nM	1.93 nM	0.13 nM
CNC(=O)[C@@H]1Cc2ccc(cc2)OCCC[C@H](C(=O)NO)[C@@H](CC(C)C)C(=O)N1	1.2 nM	1200 nM	32.7 nM	1.8 nM
CNC(=O)[C@@H]1CCCCNC(=O)CO[C@H](C(=O)NO)[C@@H](CC(C)C)C(=O)N1	2.8 nM	6500 nM	24.1 nM	2.6 nM
